pEC50, pIC50: −log10 of the molar value. Where two headings read alike, the source gives them in different places.
How the values were obtained:
Huh7 cells = experiment: Cell proliferation, Huh7 (CellTiter Glo); format: cell-based; details: Homo sapiens, read-out: Cell Proliferation GI50 (nM) HUH
Protocol: The growth inhibition (GI50) values were determined by Graph Pad Prism.

MDA-MB-453 cells = experiment: Cell proliferation, MDA-MB-453 (CellTiter Glo); format: cell-based; details: Homo sapiens, read-out: Cell Proliferation GI50 (nM) MDA
Protocol: For both MDA-MB-453 and Huh7 cells the starting density was 5000 cells per well. The cells were allowed to settle down for 4 hr and were then treated with 5, 1.25, 0.31, 0.078, 0.020 or 0.005 μM of test compound for: 96 hr for MDA-MB-453 and 120 hr for Huh7 cells. Cell viability was determined by CellTiter Glo (Promega, Madison, Wis.) and the results were converted to cell numbers using a standard curve. The growth inhibition (GI50) values were determined by Graph Pad Prism.
The results of these experiments show the ability of compounds to inhibit cell growth in FGFR dependant cell lines and are depicted in Table 8, in the columns titled “Cell Proliferation GI50 (nM)”. MDA-MB-453 cell results fall under the heading “MDA” and Huh7 cell results fall under the heading “Huh.”

FGFR4-WT = FGFR4-WT (Homo sapiens (Human), UniProt P22455); experiment: Omnia assay for potency assessment against FGFR4 enzyme; format: biochemical; details: read-out: FGFR4 IC50
Sequence of FGFR4-WT (P22455 22-802): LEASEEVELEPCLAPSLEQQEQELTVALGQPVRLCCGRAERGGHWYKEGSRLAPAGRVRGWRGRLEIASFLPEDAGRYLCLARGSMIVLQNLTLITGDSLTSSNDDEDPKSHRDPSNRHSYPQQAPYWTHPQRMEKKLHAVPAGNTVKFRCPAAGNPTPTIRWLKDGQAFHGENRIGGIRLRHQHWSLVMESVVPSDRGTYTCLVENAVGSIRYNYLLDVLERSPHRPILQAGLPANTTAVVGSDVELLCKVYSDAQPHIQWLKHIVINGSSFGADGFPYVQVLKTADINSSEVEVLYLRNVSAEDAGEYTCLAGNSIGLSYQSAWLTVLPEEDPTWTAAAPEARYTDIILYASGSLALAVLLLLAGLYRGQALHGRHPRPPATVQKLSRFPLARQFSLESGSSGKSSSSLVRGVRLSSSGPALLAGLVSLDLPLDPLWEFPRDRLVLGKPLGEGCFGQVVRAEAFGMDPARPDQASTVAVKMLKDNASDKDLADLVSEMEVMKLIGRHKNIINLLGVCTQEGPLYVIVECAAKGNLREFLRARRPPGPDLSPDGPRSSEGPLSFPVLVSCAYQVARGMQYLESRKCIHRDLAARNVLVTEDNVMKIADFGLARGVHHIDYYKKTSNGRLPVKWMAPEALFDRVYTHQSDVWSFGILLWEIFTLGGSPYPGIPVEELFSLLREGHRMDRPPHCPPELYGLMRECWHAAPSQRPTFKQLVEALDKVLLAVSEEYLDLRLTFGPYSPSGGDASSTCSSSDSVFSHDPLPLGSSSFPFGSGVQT
Protocol: A 10× stock solution of FGFR4-WT (PR4380C), (from Invitrogen, Carlsbad, Calif.) corresponding to method a in Table 7, was prepared as described below. Alternatively, a 10× stock solution of FGFR4-WT (F01-11G), (SignalChem, Richmond, BC) corresponding to method b in Table 7, was prepared as described below. A solution of 1.4×ATP (AS001A) and 5×Tyr-Sox conjugated peptide substrate (KNZ3101) were prepared in IX kinase reaction buffer consisting of 20 mM Tris, pH 7.5, 5 mM MgCl2, 1 mM EGTA, 5 mM β-glycerophosphate, 5% glycerol (10× stock, KB002A) and 0.2 mM DTT (DS001A). […] The serially diluted compounds were prepared on a Tecan EVO100. A second addition of 10 μl of Tyr-Sox FGFR4 substrate was added to each well and the kinase reactions were started with the addition of 35 μL of 1.4×ATP. The reactions were monitored every 71 seconds for 240 minutes at λex360/λem485 in a Synergy plate reader from BioTek (Winooski, Vt.).

[1] = biological target: FGFR4 in MDA-MB-453 cells (Homo sapiens (Human), UniProt P22455, Y367C); experiment: Target occupancy assay with biotinylated covalent probe I-127; format: cell-based; details: MDA-MB-453 lysate; 2 μM biotinylated probe I-127
Sequence of FGFR4 in MDA-MB-453 cells (P22455 22-802 Y367C): as the sequence (P22455 22-802) above, with Y346C counted along it
Protocol: In order to assess free FGFR4 protein a biotinylated covalent probe was utilized. […] The reaction was incubated for 2 hr at room temperature. The samples and probe mixture were transferred to a FGFR4-coated MSD plate for 2 hr at room temperature. MSD signals were obtained with an anti-streptavidin Sulfo-tag (Meso Scale) antibody for 1 hr at room temperature.
If a compound completely (100%) covalently modies FGFR4 no free FGFR4 should be available for covalent modification by the biotinylated probe and subsequent binding to streptavidin and detection.

[2] = method a: Invitrogen FGFR4-WT 10 nM, ATP 300 uM, Y10-Sox 10 uM

GI50 (Huh7 cells; Huh-7, Huh7, 120 hr) [nM]	GI50 (MDA-MB-453 cells; MDA-MB-453, 96 hr) [nM]	Structure (SMILES)	pIC50 (FGFR4-WT; [2])	other results
> 1000	501 to 999	C=CC(=O)Nc1ccccc1Nc1ncc2c(n1)N(CC#N)C(=O)N(c1cc(OC)cc(OC)c1)C2 [I-48]		
> 1000	101 to 500	C=CC(=O)Nc1ccccc1Nc1ncc2c(n1)N(CC(F)F)C(=O)N(c1cc(OC)cc(OC)c1)C2 [I-99]		
		C=CC(=O)Nc1cc(N2CCN(C(=O)OC(C)(C)C)CC2)ccc1Nc1ncc2c(n1)N(C)C(=O)N(c1c(Cl)c(OC)cc(OC)c1Cl)C2 [I-62]	> 7.00	
> 1000	101 to 500	C=CC(=O)Nc1ccccc1Nc1ncc2c(n1)N(CC1CC1)C(=O)N(c1cc(OC)cc(OC)c1)C2 [I-98]		
101 to 500	< 100	C=CC(=O)Nc1ccccc1Nc1ncc2c(n1)N(CC(F)F)C(=O)N(c1cc(OC)cc(OC)c1Cl)C2 [I-104]		
	101 to 500	C=CC(=O)Nc1ccccc1Nc1ncc2c(n1)N(Cc1cccc(F)c1)C(=O)N(c1c(Cl)c(OC)cc(OC)c1Cl)C2 [I-12]		pEC50 [1]: 6.30 to 7.00
		C=CC(=O)N(C)C1CCCCC1Nc1ncc2c(n1)N(C)C(=O)N(c1c(Cl)c(OC)cc(OC)c1Cl)C2 (stereo not shown) [I-53]	> 7.00	
> 1000	501 to 999	C=CC(=O)Nc1ccccc1Nc1ncc2c(n1)N(C1COC1)C(=O)N(c1cc(OC)cc(OC)c1)C2 [I-88]		
		C=CC(=O)NC1CCCCC1Nc1ncc2c(n1)N(CC1CC1)C(=O)N(c1c(Cl)c(OC)cc(OC)c1Cl)C2 (racemic) [I-129]	> 7.00	
		C=CC(=O)NC1CCCCC1Nc1ncc2c(n1)N(C1CCCN(C(=O)OC(C)(C)C)C1)C(=O)N(c1cc(OC)cc(OC)c1)C2 (racemic) [I-45]	< 6.00	
		C=CC(=O)Nc1ccccc1Nc1ncc2nc(-c3cc(OC)cc(OC)c3)c(=O)n(C)c2n1 [I-128]	6.30 to 7.00	
101 to 500	< 100	C=CC(=O)Nc1ccccc1Nc1ncc2c(n1)N(Cc1ccnc(N)c1)C(=O)N(c1cc(OC)cc(OC)c1)C2 [I-87]		
		CCC(=O)N[C@H]1CCCC[C@H]1Nc1ncc2c(n1)N(Cc1cscn1)C(=O)N(c1c(Cl)c(OC)cc(OC)c1Cl)C2 [I-118]	< 6.00	
101 to 500	< 100	C=CC(=O)Nc1ccccc1Nc1ncc2c(n1)N(CC(F)F)C(=O)N(c1c(Cl)c(OC)cc(OC)c1Cl)C2 [I-103]		
	< 100	C=CC(=O)Nc1ccccc1Nc1ncc2c(n1)N(Cc1csc(C)n1)C(=O)N(c1c(Cl)c(OC)cc(OC)c1Cl)C2 [I-134]		pEC50 [1]: > 7.00
		C=CC(=O)NC1CCCCC1Nc1ncc2c(n1)N(C1CCC1)C(=O)N(c1c(Cl)c(OC)cc(OC)c1Cl)C2 (racemic) [I-70]	> 7.00	
501 to 999	101 to 500	C=CC(=O)Nc1ccccc1Nc1ncc2c(n1)N(CC1CC1)C(=O)N(c1cc(OC)cc(OC)c1Cl)C2 [I-100]		
101 to 500	< 100	C=CC(=O)NC1CCCCC1Nc1ncc2c(n1)N(Cc1cccc(NC(=O)CC)c1)C(=O)N(c1c(Cl)c(OC)cc(OC)c1Cl)C2 (racemic) [I-8]		
		C=CC(=O)NC1CCCCC1Nc1ncc2c(n1)N(C1CCCNC1)C(=O)N(c1cc(OC)cc(OC)c1)C2 (racemic) [I-46]	< 6.00	
501 to 999	101 to 500	C=CC(=O)N[C@H]1CCCC[C@H]1Nc1ncc2c(n1)N(C)C(=O)N(c1c(Cl)c(OC)cc(OC)c1Cl)C2 [I-95]		
		C=CC(=O)Nc1ccccc1Nc1ncc2c(n1)N(C1CCNCC1)C(=O)N(c1c(Cl)c(OC)cc(OC)c1Cl)C2 [I-85]		GI50 (Huh7 cells; Huh-7, 120 h): 101 to 500 nM; GI50 (MDA-MB-453 cells; MDA-MB-453, 96 h): < 100 nM
> 1000	501 to 999	C=CC(=O)Nc1ccccc1Nc1ncc2c(n1)N(C)C(=O)N(c1c(Cl)cccc1Cl)C2 [I-83]		

Structure (SMILES)	GI50 (Huh7 cells; Huh-7, Huh7, 120 hr) [nM]	GI50 (MDA-MB-453 cells; MDA-MB-453, 96 hr) [nM]	pIC50 (FGFR4-WT; [2])	other results
C=CC(=O)Nc1ccccc1Nc1ncc2c(n1)N(Cc1cnn(C)c1)C(=O)N(c1c(Cl)c(OC)cc(OC)c1Cl)C2 [I-149]	< 100		> 7.00	
C=CC(=O)NC1COCC1Nc1ncc2c(n1)N(Cc1cn[nH]c1)C(=O)N(c1c(Cl)c(OC)cc(OC)c1Cl)C2 (stereo not shown) [I-214]	101 to 500			pIC50 (FGFR4-WT): > 7.00

From patent US10189794B2, “Heteroaryl compounds and uses thereof” (Celgene CAR LLC, priority 2013, dated 2019)
